Laboratory results: US10822333B2, “Pyridopyrimidines derivatives compounds” (BIOLAB SANUS FARMACEUTICA LTDA, priority 2014, dated 2020)
“And” between values parts separate entries of the source, which are not always exact repeats. Equal entries are not always repeated.

How the values were obtained:
[1] = target: T1, Guanylate Cyclase-C (Homo sapiens, UniProt P25092); assay: Stimulation of guanylate cyclase-C induced by the toxin STa in T84 cells (cGMP accumulation); format: cell-based; settings: for inhibition at 50 µM: T84, test compound 50 μM vs STa (1 μM) group, read-out: % of inhibition (Compound x STa); for cGMP, pmol/10 min/mg: test compound 50 μM, 10 min pre-incubation, then STa 1 μM for 10 min, T84 cells, mean ± SEM
T1 construct: host or cells: T84 cells
Description: Protocol for the Stimulation of Guanylate Cyclase-C Induced by the Toxin STa in T84 Cells
Cells from the T84 line (ATCC CCL-248) are subculture according to supplier's instructions. Briefly, after washing the culture flask (75 cm^2) using 3 mL of 0.25% Trypsin solution (w/v) and 0.53 mM EDTA solution to remove the traces of serum, the same volume of trypsin is added to each bottle, and cells are observed under a microscope until detachment of the cellular layer (usually 8-10 minutes).
Preparation of assay plates (12-well plates) follows after adding 8 mL of culture medium (DMEM-F12 supplemented with 10% fetal bovine serum and penicillin-streptomycin (50 IU/mL:50 μg/mL) and centrifugation of the cell homogenate at 2000 rpm for 5 minutes (at 25° C.).
With the aid of a 1 mL pipet connected to a vacuum pump, the supernatant is aspirated and the cells resuspended with culture medium (with necessary volume to maintain the ratio of 1:4, i.e. 1 culture flask originates 4 12-well plates). After homogenization of the cells, with an aid of a pipette, it is added 2 mL of the cell suspension to each well of the plate. The growth occurs in an incubator under controlled conditions (37° C., 5% CO2 atmosphere) until confluence of each well (typically 8-10 days).
Initially, the culture medium is aspirated using a 1 mL pipette connected to a vacuum pump and the cells are washed at least 3 times with 0.5 mL of a Dulbecco Phosphate Buffered Saline (DPBS; 37° C.) using a 1 mL pipette attached to one the vacuum pump. In the sequence, 0.5 mL of DPBS is added in the presence and/or absence of 1-metil-3-isobutyl xanthine (1 mM), dimethylsulfoxide (0.1% v/v) and the test compound and incubated for 10 minutes in an oven (37° C., 5% CO2 atmosphere).
After the incubation period, the cells are stimulated with STa toxin (1 μM, 5 μL) and incubated in an incubator (37° C., 5% CO2 atmosphere) for 10 minutes. After the stimulation period, the volume of the supernatant is aspirated using a 1 mL pipette connected to a vacuum pump and the cGMP is extracted by the addition of a hydrochloric acid solution 0.1 M (0.3 mL, using a pipette), pH 4, under constant stirring (speed 4) in a shaker type “rotator” (Lab-line Instruments, model number 4625), for 20 minutes. After the extraction period, the volume of each well is centrifuged (15000 rpm, 5 minutes, 25° C.) and an aliquot of the supernatant (0.3 mL) is quickly stored in a freezer at −20° C. for the subsequent quantification of the content of cGMP by the immunoassay method developed and described by HORTON et al. (1992) [Horton, J. K.; Martin, R. C.; Kalinka, S.; Cushing, A.; Kitcher, J. P.; O'Sullivan, M. J.; Baxendale, P. M., “Enzime immunoassays for the estimation of adenosine 3′,5′ cyclic monophosphate and guanosine 3′,5′ cyclic monophosphate in biological fluids”. J Immunol Methods 1992, 155:31-40].
The protein precipitate or “pellets” are digested directly by the addition of 0.5 mL of a 0.1 M sodium hydroxide solution, under constant agitation in a shaker type “rotator” (speed 7), for 30 minutes. Posteriorly, this protein fraction is used in the tests to determine proteins, employing a method developed by BRADFORD (1976). [M. M. BRADFORD, “A rapid and sensitive method for the quantitation of microgram quantities of protein utilizing the principle of protein-dye binding”. Analytical Biochemistry, 1976, 72:248-254].

[2] = Determination of absolute bioavailability in Beagle dogs (oral vs intravenous, plasma LC-MS/MS); format: in vivo; settings: dog, male Beagle dogs, oral powder in capsules 3 mg/kg vs intravenous bolus 1, 3 and 10 mg/kg
Description: Protocol for Determination of Absolute Bioavailability
The study used male Beagle dogs, aged between 2 to 4 years old, weighing between 8 to 12 kg, and kept in food control and disposal of water ad libitum during the study.
The dogs were shaving in the radial portion of the front paws, performing aseptic on site with the aid of moistened gauze with 70% alcohol.
Entered the 21G catheter (one in each paw in the intravenous administration protocol and a single paw in the oral administration protocol) in order to access the cephalic vein.
The blood samples were collected from animals depending on the established sampling times by taking 1.5 mL of blood using a 3 mL syringe. The samples were transferred to heparinized tube collection.
c) Route of Administration
The administration of the study compounds was made orally and intravenously.
The intravenous administration of the compounds was carried out in bolus, and has through one of the cephalic veins of dogs. Concentrations were administered 1 mg/kg; 3 mg/kg and 10 mg/kg in one, on different days.
The oral administration of the drug was provided as a powder in capsules at the dose of 3 mg/kg, which were all completely ingested by dogs.
For the intravenous administration, the blood samples (1.5 ml) were collected in the following predetermined time intervals: 0, 0.033, 0.083, 0.17, 0.25, 0.33, 0 5; 1; 2; 3; 4; 6; 8; 12 and 24 hours.
For the oral administration, the blood samples (1.5 ml) were collected in the following predetermined time intervals: 0, 0.33, 0.67, 1, 1.5, 2, 3, 4, and 6, 8, 12 and 24 hours.
The compounds tested are II, IV, VI, and XI; described in TABLE 1.
The heparinized tubes collections were placed in a centrifuge and were processed for 10 minutes at 2500 rpm per minute. The plasma was separated and put into other tubes. The plasma was analyzed by Liquid chromatography-tandem mass spectrometry (LC-MS/MS).

T1 sequence (P25092 24-1073): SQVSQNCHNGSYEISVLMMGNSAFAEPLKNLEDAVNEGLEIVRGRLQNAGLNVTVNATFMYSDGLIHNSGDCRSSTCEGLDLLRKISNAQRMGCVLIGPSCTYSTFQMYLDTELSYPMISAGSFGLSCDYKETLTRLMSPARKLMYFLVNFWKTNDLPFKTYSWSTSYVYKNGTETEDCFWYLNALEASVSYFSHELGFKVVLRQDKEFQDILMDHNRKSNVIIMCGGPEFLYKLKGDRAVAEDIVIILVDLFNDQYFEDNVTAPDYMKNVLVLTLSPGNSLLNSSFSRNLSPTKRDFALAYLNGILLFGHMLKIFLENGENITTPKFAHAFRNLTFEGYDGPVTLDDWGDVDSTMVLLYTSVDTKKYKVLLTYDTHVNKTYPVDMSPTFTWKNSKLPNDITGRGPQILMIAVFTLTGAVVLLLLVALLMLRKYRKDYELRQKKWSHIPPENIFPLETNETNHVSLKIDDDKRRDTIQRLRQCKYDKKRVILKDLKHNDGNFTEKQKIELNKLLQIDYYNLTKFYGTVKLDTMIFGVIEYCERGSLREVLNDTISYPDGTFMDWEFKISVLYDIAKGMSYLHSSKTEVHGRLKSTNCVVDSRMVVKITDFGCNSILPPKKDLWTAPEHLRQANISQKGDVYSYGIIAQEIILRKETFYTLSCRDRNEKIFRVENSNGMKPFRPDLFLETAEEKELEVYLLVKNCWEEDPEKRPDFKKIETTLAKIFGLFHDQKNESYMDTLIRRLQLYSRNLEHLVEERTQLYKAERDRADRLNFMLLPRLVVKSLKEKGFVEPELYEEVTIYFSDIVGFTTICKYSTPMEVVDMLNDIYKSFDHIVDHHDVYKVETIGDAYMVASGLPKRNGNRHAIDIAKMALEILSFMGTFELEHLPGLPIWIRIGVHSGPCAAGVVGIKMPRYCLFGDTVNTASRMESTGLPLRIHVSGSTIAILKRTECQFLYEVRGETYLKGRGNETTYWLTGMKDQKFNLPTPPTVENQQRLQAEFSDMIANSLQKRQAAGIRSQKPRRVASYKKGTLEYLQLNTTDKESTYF

SMILES | inhibition at 50 µM ([1]; cGMP accumulation in T84 cells) | cGMP, pmol/10 min/mg [1] | melting point | bioavailability [2] | % of inhibition (Compound x STa) ([1]; test compound 50 μM vs STa (1 μM) group, cGMP accumulation in T84 cells)
Cn1c2c(c(=O)n(C)c1=S)C(c1cc(F)cc(C(F)(F)F)c1)C1=C(N2)c2ccccc2C1=O (stereo not shown) [Compound III, 5-(3-fluoro-5-trifluoromethylphenyl)-1,3-dimethyl-5,11-dihydro-1H-indeno-[2′,1′:5,6]pyrido[2,3-d]pyrimidine-2-thioxo-4,6-dione] | ~64% | 201.50 ± 44.93 pmol/10 min/mg | 313 °C | – | –
Cn1c2c(c(=O)n(C)c1=S)C(c1csc(C(F)(F)F)c1)C1=C(N2)c2ccccc2C1=O (stereo not shown) [Compound II] | ~94% | 57.50 ± 3.16 pmol/10 min/mg | 178 °C | 0.16% | –
CCn1c2c(c(=O)n(C)c1=O)C(c1cc(F)cc(C(F)(F)F)c1)C1=C(N2)c2ccccc2C1=O (stereo not shown) [Compound IV, 5-(3-fluoro-5-trifluoromethylphenyl)-1-ethyl-3-methyl-5,11-dihydro-1H-indeno-[2′,1′:5,6]pyrido[2,3-d]pyrimidine-2,4,6-trione] | ~86% | 146.80 ± 22.94 pmol/10 min/mg | 177 °C | 0.17% | –
Cn1c2c(c(=O)n(C)c1=O)C(c1ccc3c(c1)OCO3)C1=C(N2)c2ccccc2C1=O (stereo not shown) [Compound IX, 5-(1,3-benzodioxol-5-yl)-1,3-dimethyl-5,11-dihydro-1H-indeno-[2′,1′:5,6]pyrido[2,3-d]pyrimidine-2,4,6-trione] | – | 703.50 ± 43.11 pmol/10 min/mg | – | – | –
Cn1c2c(c(=O)n(C)c1=O)C(c1csc(C(F)(F)F)c1)C1=C(N2)c2ccccc2C1=O (stereo not shown) [Compound I] | ~62% | 210.70 ± 6.11 pmol/10 min/mg | 265 °C | – | –
Cn1c2c(c(=O)n(C)c1=S)C(c1cc(C(F)(F)F)cc(C(F)(F)F)c1)C1=C(N2)c2ccccc2C1=O (stereo not shown) [Compound V, 5-(3,5-bistrifluoromethylphenyl)-1,3-dimethyl-5,11-dihydro-1H-indeno-[2′,1′:5,6]pyrido[2,3-d]pyrimidine-2-thioxo-4,6-dione] | ~62% | – | 314 °C | – | –
CCn1c2c(c(=O)n(C)c1=O)C(c1cc(C(F)(F)F)cc(C(F)(F)F)c1)C1=C(N2)c2ccccc2C1=O (stereo not shown) [Compound VI, 5-(3,5-bistrifluoromethylphenyl)-1-ethyl-3-methyl-5,11-dihydro-1H-indeno-[2′,1′:5,6]pyrido[2,3-d]pyrimidine-2,4,6-trione] | ~97% | 22.83 ± 3.30 pmol/10 min/mg | 166 °C | 0.82% | –
Cn1c2c(c(=O)n(C)c1=O)C(c1cccc3c1OCO3)C1=C(N2)c2ccccc2C1=O (stereo not shown) [Compound VII, 5-(1,3-benzodioxol-4-yl)-1,3-dimethyl-5,11-dihydro-1H-indeno-[2′,1′:5,6]pyrido[2,3-d]pyrimidine-2,4,6-trione] | ~12% | 297.30 ± 39.06 pmol/10 min/mg | – | – | –
Cn1c2c(c(=O)n(C)c1=S)C(c1cccc3c1OCO3)C1=C(N2)c2ccccc2C1=O (stereo not shown) [Compound VIII, 5-(1,3-benzodioxol-4-yl)-1,3-dimethyl-5,11-dihydro-1H-indeno-[2′,1′:5,6]pyrido[2,3-d]pyrimidine-2-thioxo-4,6-dione] | ~66% | 350.70 ± 35.80 pmol/10 min/mg | 310 °C | – | –
Cn1c2c(c(=O)n(C)c1=O)C(c1cccc3nsnc13)C1=C(N2)c2ccccc2C1=O (stereo not shown) [Compound X, 5-(2,1,3-benzothiadiazol-4-yl)-1,3-dimethyl-5,11-dihydro-1H-indeno-[2′,1′:5,6]pyrido[2,3-d]pyrimidine-2,4,6-trione] | ~36% | 668.40 ± 75.46 pmol/10 min/mg | – | – | –
Cn1c2c(c(=O)n(C)c1=O)C(c1ccc3nsnc3c1)C1=C(N2)c2ccccc2C1=O (stereo not shown) [Compound XI, 5-(2,1,3-benzothiadiazol-5-yl)-1,3-dimethyl-5,11-dihydro-1H-indeno-[2′,1′:5,6]pyrido[2,3-d]pyrimidine-2,4,6-trione] | ~70% | 171.30 ± 31.68 pmol/10 min/mg | – | 0.35% | –
Cn1c2c(c(=O)n(C)c1=S)C(c1ccc3nsnc3c1)C1=C(N2)c2ccccc2C1=O (stereo not shown) [Compound XII, 5-(2,1,3-benzothiadiazol-5-yl)-1,3-dimethyl-5,11-dihydro-1H-indeno-[2′,1′:5,6]pyrido[2,3-d]pyrimidine-2-thioxo-4,6-dione] | ~64% | 201.50 ± 23.51 pmol/10 min/mg | 362 °C | – | –
Cn1c2c(c(=O)n(C)c1=O)C(c1cc(C(F)(F)F)cc(C(F)(F)F)c1)C1=C(N2)c2ccccc2C1=O (stereo not shown) [FPIPP, reference compound] | ~94% | 53.53 ± 6.22 pmol/10 min/mg and 74.83 ± 13.26 pmol/10 min/mg and 56.25 ± 13.61 pmol/10 min/mg and 81.00 ± 14.38 pmol/10 min/mg | – | – | ~86% and ~83% and ~87%
